Reference: PMC9250534, “Synthesis and direct assay of large macrocycle diversities by combinatorial late-stage modification at picomole scale” (Nature Communications, 2022)

Target: MDM2 (Homo sapiens, UniProt Q00987)
Test: MDM2 binding screen of Libraries 3 and 4: displacement of fluorescent probe F-M8 at 750 nM macrocycle
Summary of the method: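 Cyclic peptide scaffolds were acylated in DMSO with carboxylic acids (20 equiv.), HBTU and DABCO for 6 h at room temperature. Reactions were quenched overnight in 100 mM Tris-Cl pH 7.4, 0.01% Tween20. The fluorescein conjugate was also competed with nutlin-3a.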

[1] = Panel b, Library 3: 63 scaffolds combinatorially acylated with 15 carboxylic acids at 30 picomole scale, displacement of fluorescent peptide probe, macrocycle 750 nM
[2] = Panel c, Library 4: best nine scaffolds and 15 additional carboxylic acids, displacement of fluorescent probe

Chain of MDM2 (Q00987 whole entry): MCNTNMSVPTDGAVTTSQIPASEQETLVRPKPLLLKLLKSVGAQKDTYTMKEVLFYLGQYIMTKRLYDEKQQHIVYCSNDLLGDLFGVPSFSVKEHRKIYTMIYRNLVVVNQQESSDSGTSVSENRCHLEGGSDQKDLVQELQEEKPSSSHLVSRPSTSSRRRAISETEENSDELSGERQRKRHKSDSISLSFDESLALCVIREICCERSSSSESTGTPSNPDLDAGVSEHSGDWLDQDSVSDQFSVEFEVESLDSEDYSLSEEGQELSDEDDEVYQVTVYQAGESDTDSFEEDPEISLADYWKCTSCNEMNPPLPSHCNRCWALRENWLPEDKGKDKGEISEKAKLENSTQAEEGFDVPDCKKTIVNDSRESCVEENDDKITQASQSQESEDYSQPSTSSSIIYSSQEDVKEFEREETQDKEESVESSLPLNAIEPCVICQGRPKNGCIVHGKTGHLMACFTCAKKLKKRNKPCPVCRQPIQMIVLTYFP

| SMILES | fraction of fluorescent probe displaced [1] | further results |
| --- | --- | --- |
| CN1C(=O)CN(CCNC(=O)c2ccc(Cl)s2)C(=O)[C@@H]2CN(CCO2)C(=O)CCSSCCNC(=O)[C@@H]1Cc1c[nH]c2ccccc12 [X-Cop-N-Aeg-NMe-Trp + Acid 14] | -0.025 |  |
| O=C(/C=C/c1ccc2ccccc2c1)NC[C@@H]1NC(=O)C2(CC2)CNC(=O)CCSSCCNC(=O)[C@H](Cc2ccc3ccccc3c2)NC1=O [X-Amcp-Dap-2-Nal + Acid 112] | 0.015 |  |
| O=C1CN(CCNC(=O)c2ccc(Cl)s2)C(=O)[C@@H]2CN(CCO2)C(=O)CCSSCCNC(=O)[C@@H](Cc2c[nH]c3ccccc23)N1 [X-Cop-N-Aeg-D-Trp + Acid 14] | -0.012 |  |
| O=C1CCSSCCNC(=O)[C@H](Cc2cccc3ccccc23)NC(=O)[C@H](CNC(=O)c2ccc(Cl)cc2)NC(=O)C2(CC2)CN1 [X-Amcp-Dap-1-NaI + Acid 25] | 0.008 |  |
| O=C(NCC1NC(=O)C2CN(CCO2)C(=O)CCSSCCNC(=O)C(Cc2ccc3ccccc3c2)NC1=O)c1ccc2ccccc2c1 [X-Cop-D-Dap-2-Nal + Acid 107] | 0.00455 |  |
| O=C(NC[C@@H]1NC(=O)[C@@H]2CN(CCO2)C(=O)CCSSCCNC(=O)[C@@H](Cc2c[nH]c3ccccc23)NC1=O)c1ccc(Cl)cc1 [X-Cop-Dap-D-Trp + Acid 25] | -0.012 |  |
| Cn1cc(C[C@@H]2NC(=O)[C@@H](CNC(=O)CCS(=O)(=O)c3ccccc3)NC(=O)C3(CC3)CNC(=O)CCSSCCNC2=O)c2ccccc21 [X-Amcp-D-Dap-Me-Trp + Acid 114] | 0.015 |  |
| O=C(/C=C/c1ccc(OCc2ccccc2)cc1)NC[C@H]1NC(=O)C2(CC2)CNC(=O)CCSSCCNC(=O)[C@H](Cc2cccc3ccccc23)NC1=O [X-Amcp-D-Dap-1-NaI + Acid 110] | 0.028 |  |
| O=C(/C=C/c1ccc2ccccc2c1)NC[C@H]1NC(=O)[C@H]2CCCN(C2)C(=O)CCSSCCNC(=O)[C@H](Cc2c[nH]c3cc(Cl)ccc23)NC1=O [X-Nip-D-Dap-Cl-Trp + Acid 112] | -0.00533 |  |
| Cn1cc(CC2NC(=O)C(CNC(=O)C=Cc3ccc(OCc4ccccc4)cc3)NC(=O)C3CN(CCO3)C(=O)CCSSCCNC2=O)c2ccccc21 [X-Cop-D-Dap-Me-Trp + Acid 110] | 0.028 |  |
| CC(C)c1ccc(/C=C/C(=O)O)cc1 [Acid 127] |  | fraction of fluorescent probe displaced [2]: -0.021 |
| CC(Oc1cccc(Cl)c1)C(=O)NC[C@@H]1NC(=O)[C@H]2CCCN(C2)C(=O)CCSSCCNC(=O)[C@H](Cc2c[nH]c3cc(Cl)ccc23)NC1=O (stereo partly drawn) [X-Nip-Dap-Cl-Trp + Acid 113] | 0.008 |  |
| COc1ccc(/C=C/C(=O)NC[C@@H]2NC(=O)[C@H]3CCCN(C3)C(=O)CCSSCCNC(=O)[C@H](Cc3c[nH]c4ccccc34)NC2=O)cc1 [M9] |  | displacement of fluorescent probe from MDM2 (750 nM macrocycle, crude reaction, probe F-M8): 68% |
| CCCOc1ccc(/C=C/C(=O)NC[C@@H]2NC(=O)C3(CC3)CNC(=O)CCSSCCNC(=O)[C@H](Cc3c[nH]c4ccccc34)NC2=O)cc1 [X-Amcp-Dap-Trp + Acid 118] |  | fraction of fluorescent probe displaced [2]: 0.069 |
| CN1C(=O)[C@H](CNC(=O)/C=C/c2ccc(Cl)cc2)NC(=O)[C@H]2CCCN(C2)C(=O)CCSSCCNC(=O)[C@@H]1Cc1c[nH]c2ccccc12 [X-Nip-Dap-NMe-Trp + Acid 108] | 0.00133 |  |
| O=C(NC[C@H]1NC(=O)[C@H]2CCCN(C2)C(=O)CCSSCCNC(=O)[C@H](Cc2cccc3ccccc23)NC1=O)c1ccc(Cl)cc1 [X-Nip-D-Dap-1-NaI + Acid 25] | 0.015 |  |
| O=C(CCS(=O)(=O)c1ccccc1)NC[C@H]1NC(=O)[C@H]2CCCN(C2)C(=O)CCSSCCNC(=O)[C@H](Cc2c[nH]c3cc(Cl)ccc23)NC1=O [X-Nip-D-Dap-Cl-Trp + Acid 114] | 0.015 |  |
| O=C1CN(CCNC(=O)C2COc3ccccc3O2)C(=O)[C@@H]2CN(CCO2)C(=O)CCSSCCNC(=O)[C@H](Cc2c[nH]c3cc(Cl)ccc23)N1 (stereo partly drawn) [X-Cop-N-Aeg-Cl-Trp + Acid 115] | 0.021 |  |
